{"source": "patent US11865182B2", "about": "“Product and process for employing GC7 (N1-guanyl-1,7-diaminoheptane) based antigen binding conjugates in cancer therapy” (priority 2017, dated 2024)", "test_system": "bi-lateral subcutaneous tumors derived from 779E cells", "experiment": "in-vivo analysis of ADCs cytotoxic effect in subcutaneous mouse model (loss of GFP fluorescence signal, IVIS imaging)", "conditions": "nude mice, 779E subcutaneous tumors, tail vein injection, after 12 days", "method": "After purification via gel chromatography, where the cytotoxicity effect of the drug on the eIF5A positive tumor cell compared to eIF5A negative cells was determined by measuring the loss of fluorescence signal of the GFP tagged tumor cells after administration of the ADC in vivo via tail vein injection in mice using an IVIS Spectrum in vivo imaging system.", "data": [{"smiles": "N=C(N)NCCCCCCCN", "note": "[GC7, N1-guanyl-1,7-diaminoheptane]", "values": [{"measurement": "tumor growth inhibition", "result": 0.4, "unit": "%"}]}]}
